# Paper PMC12930396, “Positive modulators of N-methyl-D-aspartate receptor: structure–activity relationship study on steroidal C-17 and C-20 oxime ethers” (RSC Advances, 2026)
# Several values for one entry are separate records, joined by “and”; a condition that tells them apart may be missing. Identical values can stand only once.
# Assays:
# [1] = Thermodynamic solubility in PBS pH 7.4; type: physicochemical; settings: PBS pH 7.4, 20 °C, 24 h
# Procedure: The reference samples were prepared as follows: a weight corresponding to 2.5 µmol was dissolved in 250 µL of DMSO, resulting in a concentration of 10 mM stock solution. Each calibration level standard was prepared by diluting the stock solution in a mixture of PBS and acetonitrile (50 : 50 v/v). The samples for testing were prepared as follows: the volume of 1000 µL of PBS was added to the testing tube containing a weight of sample corresponding to 0.4 mM. The mixture was shaken at 1000 rpm at 20 °C for 24 h. The mixture was then filtered using a syringe polypropylene 0.45 µm filter. Samples and calibration standards are prepared using an automated system of a robotic arm (PAL-RTC, Switzerland). Then, the sample was analysed on chromatographic system (Vanquish UHPLC, Thermo Fisher Scientific, Germany) connected to the diode array detector and consequently to the charged aerosol detector (both Vanquish, Thermo Fisher Scientific, Germany), Thermo Scientific Accucore C8 (100 × 3 mm; 2.6 µm) column, using gradient elution with acetonitrile/methanol/5 mM formate buffer (pH = 3.00); flow: 1.0 cm^3 min^−1; column temperature: 40 °C; CAD temperature: 30 °C; sample volume: 5 mm^3.
# [2] = Stability in rat plasma; type: in vitro ADME; settings: rat plasma, 37 °C
# Procedure: Compounds were prepared as 1.6 mg mL^−1 stock solutions in methanol. Then, 20 µL of stock solution was added to 1000 µL of rat plasma (BioIVT, Cat. No. RAT00PLLH-0102307), maintained at 37 °C. Aliquots (50 µL) withdrawn at 0, 8, and 24 h were analyzed by HPLC. An aliquot of plasma was extracted with methanol (450 µL) containing an internal standard, and the solution was vortexed (20 s) and centrifuged at 13 500 rpm for 10 min. The supernatant was transferred to an autosampler vial, and 10 µL was injected into an LC-MS system. The samples were analyzed using an Agilent 6230 TOF LC/MS. Samples were separated on a Waters ACQUITY UPLC CSH Phenyl-Hexyl column (100 × 2.1, 130 Å, 1.7 µm) at a flow rate of 0.3 mL min^−1. […]. The temperature, the flow rate of the nitrogen drying gas, the pressure of the nitrogen nebulizing gas, and the flow rate of the sheath gas were set at 325 °C, 10 L min^−1, 40 psi, […], and 11 L min^−1, respectively. Results are represented as a percentage of the compound remaining in spiked plasma.
# [3] = Stability in primary rat hepatocytes
# Procedure: Primary rat hepatocytes were isolated from 12-weeks-old male Wistar rats (n = 3) by two-step collagenase liver perfusion. Tribromoethanol was used as an anesthetic agent at a dose of 250 mg kg^−1. […] Flow rate was maintained at 7 mL min^−1, and all solutions were kept at 37 °C. After in situ perfusion, the liver was excised, the liver capsule was opened, and cells were suspended in William's Medium E and filtered through a 70 µm membrane. Dead cells were removed by Percoll centrifugation (Percoll density: 1.06 g mL^−1, 50×g, 10 min, 20 °C) and additional centrifugation in William's Medium E (50×g, 5 min). Cells were subsequently diluted in William's Medium E, and their viability and cell suspension density were determined by Trypan Blue exclusion using a hemocytometer. […] Aliquots (50 µL) of the hepatocyte suspension were added to each test well of a 96-well plate, immediately followed by the addition of a 50 µL aliquot of the test compound or control solutions (final hepatocyte density – 0.5 × 10^6 mL^−1). […] At appropriate time-points, 40 µL aliquots were removed from the wells and placed in 1.1 mL microtubes containing 200 µL of methanol and used for LC-MS/MS analysis.
# Elimination constant (kel), half-life (t1/2), and intrinsic clearance (CLint) were determined in plots of ln (percent remaining of parent compound) versus time, using linear regression analysis: k = −slope [drawing 6] [drawing 7]
structure (smiles),measurement,setting,value
"CCON=C(C)C1CCC2C3CC=C4CC(OC(=O)CCCC(=O)O)CCC4(C)C3CCC12C (stereo not drawn) [Compound 12, 20-Oxo-pregn-5-en-3β-yl hemiglutarate O-ethyloxime]","Solubility PBS, pH 7.4 (thermodynamic)",[1],361 ± 41 µM
same,solubility thermodynamic at 24 h,"[1]; PBS, 20 °C, pH 7.4, aqueous buffer, thermodynamic from solid, read-out: Solubility PBS, pH 7.4 (thermodynamic)",> 350 µM
same,Stability in rat plasma (% remaining) 8 h,[2]; 8 h,85.6 ± 1.0 % remaining and 86 ± 1 % remaining
same,Stability in rat plasma (% remaining) 24 h,[2]; 24 h,59.6 ± 0.7 % remaining and 60 ± 1 % remaining
same,Stability in primary rat hepatocytes Clint,"[3]; 3 µM, 0.5 × 10^6 cells mL^−1",19.1 µL/min/mg
same,half-life at 3 µM,"[3]; male, Wistar, rat, hepatocytes",1.21 h
same,Metabolic stability in rat hepatocytes,"[3]; rat, hepatocytes",moderate metabolic stability
